Reference: patent US10744128B2, “6-(5-membered heteroaryl)isoquinolin-3-yl-(5-membered heteroaryl) carboxamides and preparation and use thereof” (Samumed, LLC, priority 2017, dated 2020)
pEC50: −log10 of the molar value. Where two headings read alike, the source gives them in different places.

Tests used:
[1] = tested on: Tau phosphorylation at Ser396 (pSer396); assay: Tau phosphorylation (pSer396) assay in SH-SY5Y cells; assay type: cell-based, human
Experimental: Two days before treatment, cells were seeded onto 96 well plates at 5×10^4 cells/well.
The above synthesized compounds were screened using the cell assay procedure to assess decrease Tau phosphorylation at Ser396 (pSer396) described below.
Cells were lysed with RIPA buffer complemented with phosphatase and protease inhibitors then lysates were spun down at 12,000 g for 10 min to remove any cellular debris.

recombinant GSK3β kinase = recombinant GSK3β kinase (Homo sapiens (Human), UniProt P49841); assay: GSK3β kinase assay (Ser/Thr 09 peptide Z-lyte, FRET); assay type: biochemical; details: GSK3β kinase, 46 μM ATP, one hour; method calls values IC50
recombinant GSK3β kinase, sequence (P49841 whole entry): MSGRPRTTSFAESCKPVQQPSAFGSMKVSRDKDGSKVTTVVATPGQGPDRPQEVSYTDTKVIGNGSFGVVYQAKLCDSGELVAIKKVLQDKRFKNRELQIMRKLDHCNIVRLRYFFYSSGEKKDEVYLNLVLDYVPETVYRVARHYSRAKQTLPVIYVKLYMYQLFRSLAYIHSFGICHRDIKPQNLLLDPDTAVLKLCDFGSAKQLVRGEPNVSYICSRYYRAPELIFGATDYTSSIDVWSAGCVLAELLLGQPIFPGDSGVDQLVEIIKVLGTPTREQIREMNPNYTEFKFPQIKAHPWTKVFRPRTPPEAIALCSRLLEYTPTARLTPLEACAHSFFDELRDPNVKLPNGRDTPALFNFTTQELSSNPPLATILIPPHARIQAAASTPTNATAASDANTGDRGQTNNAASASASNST

IL-6 = IL-6 inhibition in LPS-stimulated human peripheral blood mononuclear cells (HTRF); assay type: cell-based; details: Homo sapiens, PBMC; for pEC50: huPBMCs, LPS 50 ng/mL, 22 hours, IL-6 HTRF; for inhibition at 10 µM: read-out: percent inhibition at 10 μM
Procedure, shortened: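 Fresh human PBMCs at 1×10e6 cells/mL in 1% FBS-RPMI were pretreated with compound for 2 h, then stimulated with 50 ng/mL E. coli 0111:B4 LPS for a further 22 h at 37 °C. IL-6 was measured by HTRF (665/620 nm ratio). Values were normalized to DMSO and fitted 4-parameter for EC50.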

[2] = tested on: SW480 colon carcinoma cells; assay: Cell viability assay (CellTiter-Glo) in SW480 cells; assay type: cell-based, human; details: Homo sapiens, 96 h, four days
[3] = tested on: Wnt-responsive promoter (Sp5-Luc reporter) in SW480 colon carcinoma cells; assay: Sp5-Luc reporter gene screening assay for Wnt activity in SW480 cells; assay type: cell-based, human; details: Homo sapiens, 36 to 48 hours, luminescence
Procedure, shortened: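 SW480 cells stably carrying a luciferase reporter under an Sp5 promoter with eight TCF/LEF sites, plated at 4,000 cells/well in DMEM with 1% FBS and incubated 36 to 48 hours at 37° C. Luminescence normalized to DMSO-only cells; EC50 fitted by four-parameter nonlinear regression.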

[4] = target: recombinant DYRK1A kinase (Homo sapiens (Human), UniProt Q13627); assay: DYRK1A kinase assay (Ser/Thr 18 peptide Z-lyte, FRET); details: DYRK1A kinase, 30 μM ATP, one hour; method calls values IC50
Experimental: Each compound was dissolved in DMSO as a 10 mM stock and used to prepare compound source plates.
This is a non-radioactive assay using fluorescence resonance energy transfer (FRET) between coumarin and fluorescein to detect kinase activity which is represented as a ratio of coumarin emission/fluorescein emission.
The mixture was allowed to incubate with the representative compounds for one hour at room temperature. All reactions were performed in duplicate. Unphosphorylated (“0% Control”) and phosphorylated (“100% control”) forms of Ser/Thr 18 served as control reactions. Additionally, an 11-point dose-response curve of Staurosporine (1 uM top) was run to serve as a positive compound control.
After incubation, Development Reagent A was diluted in Development Buffer then added to the reaction and allowed to further incubate for one hour at room temperature.
Dose-response curves were generated and inhibitory concentration (IC50) values were calculated using non-linear regression curve fit in the Dotmatics' Studies Software (Bishops Stortford, UK).

[5] = tested on: primary human fibroblasts derived from IPF patients (LL29 cells), α-smooth muscle actin; assay: Inhibition of fibrotic process: αSMA in TGF-β1 treated LL29 fibroblasts; assay type: cell-based; details: Homo sapiens, Fibroblast, 96 h; LL29 cells, TGF-β1 20 ng/mL, 4 days, % cells positive for αSMA
Procedure, shortened: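 LL29 fibroblasts from IPF patients, in F12 medium with 1% FBS, treated with TGF-β1 plus compound; TGF-β1 with DMSO as positive control, DMSO alone as negative control. After 4 days' incubation, SYTOX green nucleic acid stain added at 1 μM final, 30 min at room temperature.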

[6] = Homo sapiens, SH-SY5Y cells, overnight (16-18 h), pSer396 Tau ELISA, read-out: EC50

SMILES	pEC50 ([1]; SH-SY5Y cells, overnight (16-18 h), pSer396 Tau ELISA, read-out: EC50)	pEC50 (recombinant GSK3β kinase)	pEC50 (IL-6)	pEC50 [2]	pEC50 [3]	pEC50 [1, 6]	pEC50 [4]	pEC50 [5]	inhibition at 10 µM (IL-6) [%]	pEC50 ([1]; Homo sapiens, SH-SY5Y)
CCN1/C(=C/C(C)=O)Sc2ccc(O)cc21 [Indy, reference compound]	< 5.00	–	–	–	–	–	–	–	–	–
Cc1ncc(-c2ccc3cnc(NC(=O)Cn4ccnc4)cc3c2)o1 [Compound 64, 2-(1H-imidazol-1-yl)-N-(6-(2-methyloxazol-5-yl)isoquinolin-3-yl)acetamide]	–	8.05	6.37	6.08	5.94	7.07	8.40	6.73	–	–
Cc1ncc(C(=O)Nc2cc3cc(-c4cnc(C)n4C)ccc3cn2)s1 [Compound 62, N-(6-(1,2-Dimethyl-1H-imidazol-5-yl)isoquinolin-3-yl)-2-methylthiazole-5-carboxamide]	–	6.35	5.56	7.64	6.96	6.71	8.70	6.19	–	–
COc1ccc2c(c1)[nH]c1c(C)nccc12 [Harmine, reference compound]	–	–	–	–	–	–	–	–	–	< 5.00
CC(C)n1cc(C(=O)Nc2cc3cc(-c4cncn4C(C)C)ccc3cn2)cn1 [Compound 70, 1-Isopropyl-N-(6-(1-isopropyl-1H-imidazol-5-yl)isoquinolin-3-yl)-1H-pyrazole-4-carboxamide]	–	5.15	5.80	6.88	6.94	–	8.05	6.60	–	–
Cc1nnc(C(=O)Nc2cc3cc(-c4cncn4C)ccc3cn2)s1 [Compound 59, 5-Methyl-N-(6-(1-methyl-1H-imidazol-5-yl)isoquinolin-3-yl)-1,3,4-thiadiazole-2-carboxamide]	–	5.85	< 5.00	5.48	5.72	–	8.40	5.85	0	–
Cc1nnc(C(=O)Nc2cc3cc(-c4cncn4C)ccc3cn2)o1 [Compound 58, 5-Methyl-N-(6-(1-methyl-1H-imidazol-5-yl)isoquinolin-3-yl)-1,3,4-oxadiazole-2-carboxamide]	–	5.36	< 5.00	5.53	5.88	–	8.05	5.89	9.5	–

Second part, led by results:

pEC50 ([1]; SH-SY5Y cells, overnight (16-18 h), pSer396 Tau ELISA, read-out: EC50)	pEC50 (recombinant GSK3β kinase)	pEC50 (IL-6)	pEC50 [2]	pEC50 [3]	pEC50 [1, 6]	pEC50 [4]	SMILES	pEC50 [5]	inhibition at 10 µM (IL-6) [%]	pEC50 ([1]; Homo sapiens, SH-SY5Y)
–	< 5.00	5.00	6.47	5.93	5.68	7.62	Cc1ncc(C(=O)Nc2cc3cc(-c4cnn(C5CCN(C)CC5)c4)ccc3cn2)s1 [Compound 28, 2-Methyl-N-(6-(1-(1-methylpiperidin-4-yl)-1H-pyrazol-4-yl)isoquinolin-3-yl)thiazole-5-carboxamide]	6.42	–	–
–	5.98	6.94	7.42	7.57	7.00	8.70	Cn1cc(-c2ccc3cnc(NC(=O)c4cnn(C5CCNCC5)c4)cc3c2)cn1 [Compound 2, N-(6-(1-methyl-1H-pyrazol-4-yl)isoquinolin-3-yl)-1-(piperidin-4-yl)-1H-pyrazole-4-carboxamide]	7.03	–	–
–	6.11	6.30	7.23	7.96	7.57	9.00	CC(C)N1CCC(n2cc(C(=O)Nc3cc4cc(-c5cnn(C)c5)ccc4cn3)cn2)CC1 [Compound 8, 1-(1-isopropylpiperidin-4-yl)-N-(6-(1-methyl-1H-pyrazol-4-yl)isoquinolin-3-yl)-1H-pyrazole-4-carboxamide]	7.14	–	–
–	5.44	< 5.00	5.44	6.52	< 5.00	7.85	Cn1cc(-c2ccc3cnc(NC(=O)c4csc(C5CCN(CCF)CC5)n4)cc3c2)cn1 [Compound 27, 2-(1-(2-Fluoroethyl)piperidin-4-yl)-N-(6-(1-methyl-1H-pyrazol-4-yl)isoquinolin-3-yl)thiazole-4-carboxamide]	5.60	34.5	–
–	5.38	6.56	6.98	7.26	7.19	8.52	CC(C)OC(=O)N1CCC(n2cc(C(=O)Nc3cc4cc(-c5cnn(C)c5)ccc4cn3)cn2)CC1 [Compound 10, isopropyl 4-(4-((6-(1-methyl-1H-pyrazol-4-yl)isoquinolin-3-yl)carbamoyl)-1H-pyrazol-1-yl)piperidine-1-carboxylate]	7.21	–	–
–	6.34	5.59	6.40	6.94	–	7.72	Cn1cc(-c2ccc3cnc(NC(=O)c4coc(C5CCNCC5)n4)cc3c2)nn1 [Compound 36, N-(6-(1-Methyl-1H-1,2,3-triazol-4-yl)isoquinolin-3-yl)-2-(piperidin-4-yl) oxazole-4-carboxamide]	6.22	–	–
–	5.49	5.43	6.37	6.97	–	7.82	CN1CCC(c2nc(C(=O)Nc3cc4cc(-c5cnn(C)c5)ccc4cn3)co2)CC1 [Compound 20, N-(6-(1-Methyl-1H-pyrazol-4-yl)isoquinolin-3-yl)-2-(1-methylpiperidin-4-yl)oxazole-4-carboxamide]	5.70	–	–
–	5.78	6.45	7.03	7.43	–	9.00	Cn1cncc1-c1ccc2cnc(NC(=O)c3cnn(C4CC4)c3)cc2c1 [Compound 44, 1-Cyclopropyl-N-(6-(1-methyl-1H-imidazol-5-yl)isoquinolin-3-yl)-1H-pyrazole-4-carboxamide]	6.94	–	–
–	5.51	5.59	6.06	6.26	–	7.41	Cn1cc(-c2ccc3cnc(NC(=O)c4csc(C5CCNCC5)n4)cc3c2)cn1 [Compound 25, N-(6-(1-Methyl-1H-pyrazol-4-yl)isoquinolin-3-yl)-2-(piperidin-4-yl) thiazole-4-carboxamide]	5.92	–	–
